Series [1] has as its target T1, UDP-glucuronosyltransferase 2B7 (Homo sapiens, UniProt P16662).
T1 sequence (P16662 whole entry): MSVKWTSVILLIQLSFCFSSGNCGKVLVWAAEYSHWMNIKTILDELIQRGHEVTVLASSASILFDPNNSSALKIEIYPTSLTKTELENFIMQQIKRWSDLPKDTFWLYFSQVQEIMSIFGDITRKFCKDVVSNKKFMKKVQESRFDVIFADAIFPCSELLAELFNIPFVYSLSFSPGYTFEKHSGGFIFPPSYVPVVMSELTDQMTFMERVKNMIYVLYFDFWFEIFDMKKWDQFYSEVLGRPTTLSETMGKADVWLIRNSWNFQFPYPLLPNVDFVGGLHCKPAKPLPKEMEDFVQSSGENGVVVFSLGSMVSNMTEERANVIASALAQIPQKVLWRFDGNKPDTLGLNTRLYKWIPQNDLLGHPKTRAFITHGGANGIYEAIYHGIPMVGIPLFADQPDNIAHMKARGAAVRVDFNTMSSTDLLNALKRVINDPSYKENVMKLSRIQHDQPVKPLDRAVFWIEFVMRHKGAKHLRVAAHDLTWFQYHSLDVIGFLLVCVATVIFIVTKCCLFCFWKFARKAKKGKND
The series is described as follows: Drug metabolism assessed as human recombinant UGT2B7-mediated compound formation treated with AMG 853 at 10 uM after 30 mins by LC-MS/MS analysis. Format: ADME. Conditions: recombinant enzyme, 0.5 h.

Series [2] addresses T2, UDP-glucuronosyltransferase 1A4 (Homo sapiens, UniProt P22310). As to the kind of experiment: Drug metabolism assessed as human recombinant UGT1A4-mediated compound formation treated with AMG 853 at 10 uM after 30 mins by LC-MS/MS analysis. Format: ADME. The following applies: recombinant enzyme, 0.5 h.
Series [3] deals with T1, UDP-glucuronosyltransferase 2B7. The series is described as follows: Drug metabolism assessed as human recombinant UGT2B7-mediated compound formation treated with AMG 853 after 45 mins by LC-MS/MS analysis in presence of UDPGA. Format: ADME. The following applies: recombinant enzyme, 0.75 h.
For series [4] the target is unchanged. The series is described as follows: Drug metabolism assessed as human recombinant UGT2B7-mediated (2S,3S,4S,5R,6S)-6-(2-(4-(4-(tert-butylcarbamoyl)-2-(2-chloro-4-cyclopropylphenylsulfonamido)phenoxy)-5-chloro-2-fluorophenyl)acetoxy)-3,4,5-trihydroxytetrahydro-2H-pyran-2-carboxylic acid formation at 10 uM after 30 mins by LC-MS/MS analysis. Format: ADME. The following applies: recombinant enzyme, 0.5 h.

In series [5] the test system is Liver microsome. The series is described as follows: Drug metabolism in human liver microsomes assessed as 2-(4-(4-(tert-butylcarbamoyl)-2-(2-chloro-4-(1-hydroxycyclopropyl)phenylsulfonamido)phenoxy)-5-chloro-2-fluorophenyl)acetic acid formation at 2 uM after 60 mins by LC-MS/MS analysis in presence of ketoconazole. Format: ADME. Conditions: 1 h.
A further series has as its target CYP2C9 (Homo sapiens, UniProt P11712). The series is described as follows: Induction of CYP2C9 in human hepatocytes using diclofenac as substrate at 0.3 to 30 uM treated every 24 hrs for 2 days measured on day 5 by LC-MS/MS analysis relative to control. Format: ADME, cell-based, Hepatocyte. The following applies: probe diclofenac, read-out: FC.
Series [6] can be described thus: AUC (0 to infinity) in healthy human at 50 mg, po in presence of ketoconazole. Format: ADME, organism-based. Set-up: dose 50 mg, route oral, time infinity. The following applies: plasma.
In series [7] the test system is Liver microsome. As to the kind of experiment: Drug metabolism in human liver microsomes assessed as 2-(5-chloro-4-(2-(2-chloro-4-cyclopropylphenylsulfonamido)-4-(1-hydroxy-2-methylpropan-2-ylcarbamoyl)phenoxy)-2-fluorophenyl)acetic acid formation at 2 uM after 60 mins by LC-MS/MS analysis in presence of montelukast. Format: ADME. The following applies: 1 h.
In another series the target is Cytochrome P450 3A5 (Homo sapiens, UniProt P20815). The series is described as follows: Drug metabolism assessed as recombinant CYP3A5 (unknown origin)-mediated 2-(4-(4-(tert-butylcarbamoyl)-2-(2-chloro-4-(1-hydroxycyclopropyl)phenylsulfonamido)phenoxy)-5-chloro-2-fluorophenyl)acetic acid formation at 10 uM after 30 mins by LC-MS/MS analysis. Format: ADME. Conditions: recombinant enzyme, 0.5 h.

Series [8] has as its target UDP-glucuronosyltransferase 1A10 (Homo sapiens, UniProt Q9HAW8). The series is described as follows: Drug metabolism assessed as human recombinant UGT1A10-mediated (2S,3S,4S,5R,6S)-6-(2-(4-(4-(tert-butylcarbamoyl)-2-(2-chloro-4-cyclopropylphenylsulfonamido)phenoxy)-5-chloro-2-fluorophenyl)acetoxy)-3,4,5-trihydroxytetrahydro-2H-pyran-2-carboxylic acid formation at 10 uM after 30 mins by LC-MS/MS analysis. The following applies: recombinant enzyme, 0.5 h. Format: ADME.

The nature of series [9]: Drug metabolism in human liver microsomes assessed as […]-mediated (2S,3S,4S,5R,6S)-6-(2-(4-(4-(tert-butylcarbamoyl)-2-(2-chloro-4-cyclopropylphenylsulfonamido)phenoxy)-5-chloro-2-fluorophenyl)acetoxy)-3,4,5-trihydroxytetrahydro-2H-pyran-2-carboxylic acid formation after 15 mins by LC-MS/MS analysis in presence of UDPGA and NADPH. Conditions: 0.25 h. Format: ADME. (In general: Microsomes from liver hold many membrane-bound enzymes, among them those of drug oxidation.)

The nature of series [10]: Drug metabolism in human liver microsomes assessed as CYP3A5*1/*1-mediated (2S,3S,4S,5R,6S)-6-(2-(4-(4-(tert-butylcarbamoyl)-2-(2-chloro-4-cyclopropylphenylsulfonamido)phenoxy)-5-chloro-2-fluorophenyl)acetoxy)-3,4,5-trihydroxytetrahydro-2H-pyran-2-carboxylic acid formation after 15 mins by LC-MS/MS analysis in presence of UDPGA. Format: ADME. The following applies: 0.25 h.

In series [11] the target is T2, UDP-glucuronosyltransferase 1A4. The series is described as follows: Drug metabolism assessed as human recombinant UGT1A4-mediated (2S,3S,4S,5R,6S)-6-(2-(4-(4-(tert-butylcarbamoyl)-2-(2-chloro-4-cyclopropylphenylsulfonamido)phenoxy)-5-chloro-2-fluorophenyl)acetoxy)-3,4,5-trihydroxytetrahydro-2H-pyran-2-carboxylic acid formation at 10 uM after 30 mins by LC-MS/MS analysis. Format: ADME. Conditions: recombinant enzyme, 0.5 h.

Series [12] addresses UDP-glucuronosyltransferase 1A9 (Homo sapiens, UniProt O60656). As to the kind of experiment: Drug metabolism assessed as human recombinant UGT1A9-mediated (2S,3S,4S,5R,6S)-6-(2-(4-(4-(tert-butylcarbamoyl)-2-(2-chloro-4-cyclopropylphenylsulfonamido)phenoxy)-5-chloro-2-fluorophenyl)acetoxy)-3,4,5-trihydroxytetrahydro-2H-pyran-2-carboxylic acid formation at 10 uM after 30 mins by LC-MS/MS analysis. Format: ADME. The following applies: recombinant enzyme, 0.5 h.

Another series has as its system CYP2B6. The series is described as follows: Upregulation of CYP2B6 mRNA expression in human hepatocytes at 0.3 to 30 uM treated every 24 hrs for 2 days measured on day 5 relative to control. Format: ADME, cell-based, Hepatocyte. The following applies: read-out: FC.

The source of these data is ChEMBL document CHEMBL3526017, “Predicting the drug interaction potential of AMG 853, a dual antagonist of the D-prostanoid and chemoattractant receptor-homologous molecule expressed on T helper 2 cells receptors” (Drug Metab Dispos, 2012).

Structures are written as SMILES.

T2 sequence (P22310 whole entry): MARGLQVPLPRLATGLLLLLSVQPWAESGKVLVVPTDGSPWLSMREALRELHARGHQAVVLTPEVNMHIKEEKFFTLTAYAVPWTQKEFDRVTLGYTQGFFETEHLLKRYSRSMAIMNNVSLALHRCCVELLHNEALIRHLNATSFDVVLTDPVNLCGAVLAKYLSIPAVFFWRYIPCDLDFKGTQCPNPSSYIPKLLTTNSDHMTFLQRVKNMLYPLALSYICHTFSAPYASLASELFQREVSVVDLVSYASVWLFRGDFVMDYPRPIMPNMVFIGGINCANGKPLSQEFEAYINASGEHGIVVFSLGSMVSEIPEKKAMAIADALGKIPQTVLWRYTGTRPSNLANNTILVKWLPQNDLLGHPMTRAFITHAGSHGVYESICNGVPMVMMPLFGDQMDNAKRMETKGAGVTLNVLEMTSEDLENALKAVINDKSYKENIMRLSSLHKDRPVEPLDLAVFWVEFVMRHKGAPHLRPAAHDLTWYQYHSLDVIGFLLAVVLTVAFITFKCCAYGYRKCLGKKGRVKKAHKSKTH
Sequence of Cytochrome P450 3A5 (P20815 whole entry): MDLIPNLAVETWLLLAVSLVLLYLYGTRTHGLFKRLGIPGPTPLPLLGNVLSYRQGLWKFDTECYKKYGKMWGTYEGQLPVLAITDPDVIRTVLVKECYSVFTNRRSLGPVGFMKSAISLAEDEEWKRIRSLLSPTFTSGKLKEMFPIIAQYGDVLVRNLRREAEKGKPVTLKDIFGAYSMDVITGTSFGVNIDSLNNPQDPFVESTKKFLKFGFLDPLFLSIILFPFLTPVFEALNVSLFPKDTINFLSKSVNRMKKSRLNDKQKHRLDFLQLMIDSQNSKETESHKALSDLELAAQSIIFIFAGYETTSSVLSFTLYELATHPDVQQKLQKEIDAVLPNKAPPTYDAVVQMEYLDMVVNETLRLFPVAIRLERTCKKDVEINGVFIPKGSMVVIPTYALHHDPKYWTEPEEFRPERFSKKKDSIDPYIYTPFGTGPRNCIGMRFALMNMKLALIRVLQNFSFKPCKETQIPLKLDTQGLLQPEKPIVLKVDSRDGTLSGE
Sequence of UDP-glucuronosyltransferase 1A10 (Q9HAW8 whole entry): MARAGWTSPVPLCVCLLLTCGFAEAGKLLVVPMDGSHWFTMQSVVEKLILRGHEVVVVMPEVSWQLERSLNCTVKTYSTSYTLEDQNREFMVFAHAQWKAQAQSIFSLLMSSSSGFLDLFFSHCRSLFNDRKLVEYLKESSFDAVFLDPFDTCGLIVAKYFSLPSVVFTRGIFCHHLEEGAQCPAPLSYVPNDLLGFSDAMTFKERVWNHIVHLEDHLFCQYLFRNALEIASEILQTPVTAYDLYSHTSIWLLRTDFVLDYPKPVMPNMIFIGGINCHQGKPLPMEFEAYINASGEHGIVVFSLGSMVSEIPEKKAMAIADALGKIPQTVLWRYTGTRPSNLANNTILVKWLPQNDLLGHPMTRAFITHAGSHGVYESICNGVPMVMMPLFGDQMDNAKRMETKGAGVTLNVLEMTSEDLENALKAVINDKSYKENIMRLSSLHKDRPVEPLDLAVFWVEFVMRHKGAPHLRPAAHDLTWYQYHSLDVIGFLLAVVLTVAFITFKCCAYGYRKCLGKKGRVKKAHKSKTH
Sequence of CYP2C9 (P11712 whole entry): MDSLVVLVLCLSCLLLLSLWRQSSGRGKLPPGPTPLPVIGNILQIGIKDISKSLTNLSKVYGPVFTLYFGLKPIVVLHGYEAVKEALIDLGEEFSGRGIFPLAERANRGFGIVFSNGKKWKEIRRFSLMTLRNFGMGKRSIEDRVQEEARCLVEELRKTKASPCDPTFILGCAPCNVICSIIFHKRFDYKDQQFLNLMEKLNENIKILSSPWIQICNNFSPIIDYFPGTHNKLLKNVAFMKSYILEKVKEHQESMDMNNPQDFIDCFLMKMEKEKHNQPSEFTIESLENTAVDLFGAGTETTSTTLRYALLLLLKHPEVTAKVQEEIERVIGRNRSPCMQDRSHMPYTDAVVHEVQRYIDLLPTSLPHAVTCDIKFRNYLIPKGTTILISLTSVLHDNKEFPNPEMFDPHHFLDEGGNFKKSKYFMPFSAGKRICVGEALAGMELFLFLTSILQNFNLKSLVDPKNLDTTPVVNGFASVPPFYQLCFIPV
Sequence of UDP-glucuronosyltransferase 1A9 (O60656 whole entry): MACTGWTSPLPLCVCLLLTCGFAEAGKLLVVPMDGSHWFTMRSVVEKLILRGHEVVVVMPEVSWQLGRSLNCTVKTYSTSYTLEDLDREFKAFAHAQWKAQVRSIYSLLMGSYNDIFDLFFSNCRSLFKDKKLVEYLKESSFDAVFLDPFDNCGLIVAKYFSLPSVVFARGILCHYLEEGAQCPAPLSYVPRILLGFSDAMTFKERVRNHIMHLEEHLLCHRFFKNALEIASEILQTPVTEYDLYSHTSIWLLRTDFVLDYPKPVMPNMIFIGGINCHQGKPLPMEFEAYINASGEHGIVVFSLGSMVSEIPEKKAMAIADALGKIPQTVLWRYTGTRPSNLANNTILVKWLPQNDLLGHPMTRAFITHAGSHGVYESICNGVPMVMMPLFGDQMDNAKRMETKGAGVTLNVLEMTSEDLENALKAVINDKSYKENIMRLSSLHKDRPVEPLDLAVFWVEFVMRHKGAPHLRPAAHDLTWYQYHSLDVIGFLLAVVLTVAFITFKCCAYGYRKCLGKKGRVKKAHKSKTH

A word on the Vmax: it is the rate approached at saturating substrate. `CC(C)(C)NC(=O)c1ccc(Oc2cc(F)c(CC(=O)O[C@@H]3O[C@H](C(=O)O)[C@@H](O)[C@H](O)[C@H]3O)cc2Cl)c(NS(=O)(=O)c2ccc(C3CC3)cc2Cl)c1`: the Drug metabolism result in series [1] and in [2] was “metabolite_detected” each time. Besides, the S50 in series [3] amounted to 183.4 µM. In addition, the Vmax in series [3] stood at 13.6 pmol/min/mg.
One may read the AUC(0-inf) as total exposure, with the tail of the curve extrapolated. `CC(C)(C)NC(=O)c1ccc(Oc2cc(F)c(CC(=O)O)cc2Cl)c(NS(=O)(=O)c2ccc(C3CC3)cc2Cl)c1` [VIDUPIPRANT]: the Drug metabolism entry is listed as “metabolite_detected” in series [4]; “metabolite_not_detected” in the series with Liver microsome [5]; “metabolite_not_detected” with Liver microsome [7]; “metabolite_detected” at Cytochrome P450 3A5; “metabolite_not_detected” in series [8]; “metabolite_not_detected” in [9]. Further, the Drug metabolism entry in series [10] is reported as “metabolite_detected”; in [11] it was “metabolite_detected”; in [12], “metabolite_not_detected”. The fold induction at 48 h, up to 30 µM amounted to 1.4 on CYP2C9 and 1.7 in the series with CYP2B6. Also, the AUC(0-inf) in series [6] worked out at 800 ng·h/mL.
